Values quoted from earlier work, collected in US20120142645A1, “NEUROACTIVE STEROID COMPOSITIONS AND METHODS OF USE FOR LOWERING CHOLESTEROL” (priority 2009, published 2012).

Tested on: acute moderate to severe traumatic brain injury
Conditions: intravenous for three days; Wright et al., 2007; cited from earlier work

CC(=O)[C@H]1CC[C@H]2[C@@H]3CCC4=CC(=O)CC[C@]4(C)[C@H]3CC[C@]12C [progesterone]
Reduction of 30-day mortality rates: over 50%
